Measured values reported in ChEMBL document CHEMBL3991601, “The target landscape of clinical kinase drugs” (Science, 2017).
Calls of active or inactive are those of the source.

Legend:
[1] = target: T1, AarF domain-containing protein kinase 1 (Homo sapiens, UniProt Q86TW2)
T1 sequence (Q86TW2 whole entry): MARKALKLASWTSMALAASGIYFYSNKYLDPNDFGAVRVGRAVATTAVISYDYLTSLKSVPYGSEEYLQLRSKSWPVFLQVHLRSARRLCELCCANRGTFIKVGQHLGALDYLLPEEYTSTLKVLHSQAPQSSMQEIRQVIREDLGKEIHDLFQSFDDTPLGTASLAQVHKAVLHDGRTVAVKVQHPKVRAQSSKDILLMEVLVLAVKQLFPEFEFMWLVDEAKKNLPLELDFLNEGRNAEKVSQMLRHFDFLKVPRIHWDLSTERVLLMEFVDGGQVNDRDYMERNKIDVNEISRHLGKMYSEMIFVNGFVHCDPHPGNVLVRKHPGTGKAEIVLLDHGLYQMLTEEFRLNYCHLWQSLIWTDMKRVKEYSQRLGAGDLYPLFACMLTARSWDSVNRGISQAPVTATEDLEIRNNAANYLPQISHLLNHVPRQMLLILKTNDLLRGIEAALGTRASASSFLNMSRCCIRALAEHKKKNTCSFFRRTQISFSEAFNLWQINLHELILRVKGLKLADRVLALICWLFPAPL

[2] = target: Proto-oncogene tyrosine-protein kinase receptor Ret (Homo sapiens, UniProt P07949)
[3] = target: Uncharacterized aarF domain-containing protein kinase 5 (Homo sapiens, UniProt Q3MIX3)
[4] = target: T2, EKC/KEOPS complex subunit TP53RK (Homo sapiens, UniProt Q96S44)
T2 sequence (Q96S44 whole entry): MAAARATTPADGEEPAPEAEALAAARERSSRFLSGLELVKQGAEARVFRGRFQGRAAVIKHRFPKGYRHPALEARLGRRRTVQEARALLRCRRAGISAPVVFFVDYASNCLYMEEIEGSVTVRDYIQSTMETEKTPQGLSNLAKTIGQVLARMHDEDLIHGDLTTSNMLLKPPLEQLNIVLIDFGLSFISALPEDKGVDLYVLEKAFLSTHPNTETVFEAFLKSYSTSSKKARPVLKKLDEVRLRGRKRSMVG

[5] = target: DNA topoisomerase 2-alpha (Homo sapiens, UniProt P11388)
[6] = target: Protein kinase C theta type (Homo sapiens, UniProt Q04759)
[7] = target: Dual specificity mitogen-activated protein kinase kinase 1 (Homo sapiens, UniProt Q02750)
[8] = target: Myosin-10 (Homo sapiens, UniProt P35580)
[9] = target: T3, Cysteine--tRNA ligase, cytoplasmic (Homo sapiens, UniProt P49589)
T3 sequence (P49589 whole entry): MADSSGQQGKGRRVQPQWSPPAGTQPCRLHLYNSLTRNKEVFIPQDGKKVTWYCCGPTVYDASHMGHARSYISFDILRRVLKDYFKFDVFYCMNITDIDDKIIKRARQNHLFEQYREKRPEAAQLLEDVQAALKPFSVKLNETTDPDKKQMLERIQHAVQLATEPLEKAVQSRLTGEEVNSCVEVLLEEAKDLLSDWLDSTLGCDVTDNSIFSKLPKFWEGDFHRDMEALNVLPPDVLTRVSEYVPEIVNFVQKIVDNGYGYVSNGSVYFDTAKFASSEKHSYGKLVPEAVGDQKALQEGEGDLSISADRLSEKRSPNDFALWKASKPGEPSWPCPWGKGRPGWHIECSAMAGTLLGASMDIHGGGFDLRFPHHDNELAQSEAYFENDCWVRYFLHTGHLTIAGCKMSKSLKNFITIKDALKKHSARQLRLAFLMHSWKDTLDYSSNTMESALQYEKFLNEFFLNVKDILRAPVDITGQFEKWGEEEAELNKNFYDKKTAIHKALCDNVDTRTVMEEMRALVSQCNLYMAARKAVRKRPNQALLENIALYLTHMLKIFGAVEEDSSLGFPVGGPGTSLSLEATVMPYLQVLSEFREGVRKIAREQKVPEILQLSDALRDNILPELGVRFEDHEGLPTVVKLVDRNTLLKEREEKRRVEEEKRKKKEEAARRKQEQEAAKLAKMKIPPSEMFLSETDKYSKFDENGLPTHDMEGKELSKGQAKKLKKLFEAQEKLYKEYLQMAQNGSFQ

[10] = target: Membrane-associated progesterone receptor component 1 (Homo sapiens, UniProt O00264)
[11] = target: Dual specificity protein kinase CLK2 (Homo sapiens, UniProt P49760)
[12] = target: Dual specificity testis-specific protein kinase 2 (Homo sapiens, UniProt Q96S53)
[13] = target: Serine/threonine-protein kinase Nek7 (Homo sapiens, UniProt Q8TDX7)
Note: in the data inactive means no Kd found up to 30 µM.

Chain of Uncharacterized aarF domain-containing protein kinase 5 (Q3MIX3 whole entry, the tested form may be a part): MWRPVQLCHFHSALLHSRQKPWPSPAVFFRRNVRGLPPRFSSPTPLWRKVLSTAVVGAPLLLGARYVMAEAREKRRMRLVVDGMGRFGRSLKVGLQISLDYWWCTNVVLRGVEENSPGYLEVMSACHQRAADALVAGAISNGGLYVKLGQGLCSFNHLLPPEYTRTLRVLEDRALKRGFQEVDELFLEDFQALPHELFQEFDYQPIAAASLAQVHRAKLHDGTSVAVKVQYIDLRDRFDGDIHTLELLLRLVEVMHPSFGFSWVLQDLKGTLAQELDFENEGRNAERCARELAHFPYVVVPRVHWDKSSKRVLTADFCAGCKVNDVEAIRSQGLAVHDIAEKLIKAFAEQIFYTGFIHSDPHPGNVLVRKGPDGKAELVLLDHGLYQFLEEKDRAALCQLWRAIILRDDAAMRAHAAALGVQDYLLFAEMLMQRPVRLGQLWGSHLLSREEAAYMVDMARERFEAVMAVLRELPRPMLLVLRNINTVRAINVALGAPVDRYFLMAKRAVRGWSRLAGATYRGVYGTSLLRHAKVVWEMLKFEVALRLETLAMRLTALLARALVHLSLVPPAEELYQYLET
Chain of Protein kinase C theta type (Q04759 whole entry): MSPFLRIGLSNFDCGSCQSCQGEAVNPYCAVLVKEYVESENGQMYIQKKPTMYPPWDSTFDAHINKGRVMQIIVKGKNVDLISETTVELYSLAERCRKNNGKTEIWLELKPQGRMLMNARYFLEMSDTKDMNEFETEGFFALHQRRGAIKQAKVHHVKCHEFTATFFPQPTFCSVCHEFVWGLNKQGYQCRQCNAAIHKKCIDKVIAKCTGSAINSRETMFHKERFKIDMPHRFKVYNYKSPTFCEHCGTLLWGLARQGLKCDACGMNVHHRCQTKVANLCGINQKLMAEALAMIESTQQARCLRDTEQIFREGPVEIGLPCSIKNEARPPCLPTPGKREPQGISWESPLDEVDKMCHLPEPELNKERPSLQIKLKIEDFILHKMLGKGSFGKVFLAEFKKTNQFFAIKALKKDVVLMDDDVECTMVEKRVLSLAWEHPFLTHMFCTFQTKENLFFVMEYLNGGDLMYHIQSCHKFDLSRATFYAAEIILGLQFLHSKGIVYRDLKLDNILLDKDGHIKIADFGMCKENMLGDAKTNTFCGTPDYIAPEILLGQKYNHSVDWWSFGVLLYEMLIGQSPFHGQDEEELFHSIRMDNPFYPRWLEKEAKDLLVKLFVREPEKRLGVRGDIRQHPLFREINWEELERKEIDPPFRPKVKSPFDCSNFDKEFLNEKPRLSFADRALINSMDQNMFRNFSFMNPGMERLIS
Chain of Dual specificity testis-specific protein kinase 2 (Q96S53 whole entry): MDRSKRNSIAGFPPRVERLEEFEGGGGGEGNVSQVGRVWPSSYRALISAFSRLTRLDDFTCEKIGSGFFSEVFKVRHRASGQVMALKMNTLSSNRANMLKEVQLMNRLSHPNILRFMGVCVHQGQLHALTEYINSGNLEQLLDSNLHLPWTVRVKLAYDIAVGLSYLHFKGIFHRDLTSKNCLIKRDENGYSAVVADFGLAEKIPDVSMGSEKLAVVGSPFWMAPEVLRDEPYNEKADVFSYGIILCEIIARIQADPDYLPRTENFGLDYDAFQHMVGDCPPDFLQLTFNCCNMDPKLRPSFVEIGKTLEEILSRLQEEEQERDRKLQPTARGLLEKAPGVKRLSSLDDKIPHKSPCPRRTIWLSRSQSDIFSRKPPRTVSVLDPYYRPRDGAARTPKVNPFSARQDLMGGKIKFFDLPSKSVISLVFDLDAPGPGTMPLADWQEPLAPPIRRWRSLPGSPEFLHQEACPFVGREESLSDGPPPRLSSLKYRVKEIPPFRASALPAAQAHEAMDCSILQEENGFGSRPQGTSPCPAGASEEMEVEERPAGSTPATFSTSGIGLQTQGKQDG
Chain of Dual specificity mitogen-activated protein kinase kinase 1 (Q02750 whole entry): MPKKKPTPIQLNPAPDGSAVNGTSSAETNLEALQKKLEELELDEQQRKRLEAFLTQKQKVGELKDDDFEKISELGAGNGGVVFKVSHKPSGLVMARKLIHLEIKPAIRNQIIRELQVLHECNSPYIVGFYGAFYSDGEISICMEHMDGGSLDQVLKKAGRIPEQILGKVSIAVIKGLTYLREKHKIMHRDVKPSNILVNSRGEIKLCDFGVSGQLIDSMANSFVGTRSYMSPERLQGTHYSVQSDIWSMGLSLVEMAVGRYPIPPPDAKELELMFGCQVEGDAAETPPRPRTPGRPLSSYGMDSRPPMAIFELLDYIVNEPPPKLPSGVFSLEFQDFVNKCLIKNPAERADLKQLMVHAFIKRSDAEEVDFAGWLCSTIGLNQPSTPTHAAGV
Chain of Membrane-associated progesterone receptor component 1 (O00264 whole entry): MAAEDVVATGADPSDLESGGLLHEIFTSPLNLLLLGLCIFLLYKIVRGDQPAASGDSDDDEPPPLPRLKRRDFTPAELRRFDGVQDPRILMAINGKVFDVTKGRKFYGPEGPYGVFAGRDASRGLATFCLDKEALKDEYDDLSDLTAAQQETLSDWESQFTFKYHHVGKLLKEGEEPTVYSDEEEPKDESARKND
Chain of DNA topoisomerase 2-alpha (P11388 whole entry): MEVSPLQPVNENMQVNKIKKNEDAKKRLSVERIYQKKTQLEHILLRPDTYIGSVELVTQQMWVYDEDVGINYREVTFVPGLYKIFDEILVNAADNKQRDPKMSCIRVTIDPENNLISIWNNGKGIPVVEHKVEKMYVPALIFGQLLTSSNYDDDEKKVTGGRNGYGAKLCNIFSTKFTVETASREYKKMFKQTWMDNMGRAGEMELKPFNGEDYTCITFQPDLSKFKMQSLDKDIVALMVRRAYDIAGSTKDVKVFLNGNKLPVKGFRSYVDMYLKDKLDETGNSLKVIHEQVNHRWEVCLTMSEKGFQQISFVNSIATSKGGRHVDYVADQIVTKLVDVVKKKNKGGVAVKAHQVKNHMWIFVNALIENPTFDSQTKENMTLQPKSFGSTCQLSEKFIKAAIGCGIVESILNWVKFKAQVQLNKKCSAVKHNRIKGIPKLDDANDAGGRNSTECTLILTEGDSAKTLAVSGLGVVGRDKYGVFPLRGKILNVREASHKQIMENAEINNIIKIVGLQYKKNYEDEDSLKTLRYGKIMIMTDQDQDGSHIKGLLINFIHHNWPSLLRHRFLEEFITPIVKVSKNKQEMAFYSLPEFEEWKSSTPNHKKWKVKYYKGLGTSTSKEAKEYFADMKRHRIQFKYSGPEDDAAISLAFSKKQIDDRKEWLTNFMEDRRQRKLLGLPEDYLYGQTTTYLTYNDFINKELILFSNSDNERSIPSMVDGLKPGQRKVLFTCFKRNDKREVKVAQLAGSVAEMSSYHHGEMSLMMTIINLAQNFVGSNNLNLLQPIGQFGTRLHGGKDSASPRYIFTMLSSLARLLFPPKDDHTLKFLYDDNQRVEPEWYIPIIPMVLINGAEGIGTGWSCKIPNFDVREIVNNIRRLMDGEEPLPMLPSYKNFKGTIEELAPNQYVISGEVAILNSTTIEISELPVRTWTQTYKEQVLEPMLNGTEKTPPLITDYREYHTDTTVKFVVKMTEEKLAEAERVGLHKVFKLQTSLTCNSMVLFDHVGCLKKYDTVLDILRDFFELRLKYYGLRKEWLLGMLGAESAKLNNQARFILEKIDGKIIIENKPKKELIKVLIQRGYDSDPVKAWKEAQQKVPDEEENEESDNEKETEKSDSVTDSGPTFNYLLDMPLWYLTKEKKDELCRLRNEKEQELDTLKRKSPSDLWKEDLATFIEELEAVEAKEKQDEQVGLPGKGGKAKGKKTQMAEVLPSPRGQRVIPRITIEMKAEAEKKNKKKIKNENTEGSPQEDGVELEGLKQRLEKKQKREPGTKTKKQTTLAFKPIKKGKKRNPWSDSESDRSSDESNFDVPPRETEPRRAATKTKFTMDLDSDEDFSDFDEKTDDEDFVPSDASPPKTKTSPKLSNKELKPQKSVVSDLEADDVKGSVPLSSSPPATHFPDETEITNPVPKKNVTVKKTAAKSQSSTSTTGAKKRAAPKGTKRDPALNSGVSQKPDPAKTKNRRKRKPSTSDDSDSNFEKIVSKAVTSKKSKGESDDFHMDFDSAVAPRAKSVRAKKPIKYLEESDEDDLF
Chain of Dual specificity protein kinase CLK2 (P49760 whole entry): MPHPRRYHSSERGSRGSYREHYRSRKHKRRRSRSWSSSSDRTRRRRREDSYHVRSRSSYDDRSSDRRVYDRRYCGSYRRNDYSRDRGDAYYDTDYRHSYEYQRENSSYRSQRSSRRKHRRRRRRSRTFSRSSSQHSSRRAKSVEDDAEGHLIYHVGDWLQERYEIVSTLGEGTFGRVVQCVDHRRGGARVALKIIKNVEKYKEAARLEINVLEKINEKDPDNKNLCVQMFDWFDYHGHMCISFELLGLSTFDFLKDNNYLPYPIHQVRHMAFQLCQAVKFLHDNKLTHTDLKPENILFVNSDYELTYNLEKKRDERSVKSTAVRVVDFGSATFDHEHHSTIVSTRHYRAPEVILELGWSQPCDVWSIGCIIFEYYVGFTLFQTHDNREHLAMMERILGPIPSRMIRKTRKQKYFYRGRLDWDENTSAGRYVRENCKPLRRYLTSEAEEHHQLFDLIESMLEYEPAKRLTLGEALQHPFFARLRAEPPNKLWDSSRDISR
Chain of Serine/threonine-protein kinase Nek7 (Q8TDX7 whole entry): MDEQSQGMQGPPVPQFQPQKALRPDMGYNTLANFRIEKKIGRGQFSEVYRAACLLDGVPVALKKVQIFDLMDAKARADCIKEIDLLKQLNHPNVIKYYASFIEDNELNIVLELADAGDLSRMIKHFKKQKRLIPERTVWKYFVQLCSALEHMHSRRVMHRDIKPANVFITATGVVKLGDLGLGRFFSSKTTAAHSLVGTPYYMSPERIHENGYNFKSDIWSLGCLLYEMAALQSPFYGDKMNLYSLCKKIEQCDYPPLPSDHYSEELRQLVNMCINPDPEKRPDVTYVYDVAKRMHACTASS

| Structure (SMILES) | Kd [1] | Kd [2] | Kd [3] | Kd [4] | Kd [5] | Kd [6] | Kd [7] | Kd [8] | Kd [9] | Kd [10] | Kd [11] | Kd [12] | Kd [13] |
| --- | --- | --- | --- | --- | --- | --- | --- | --- | --- | --- | --- | --- | --- |
| CCN1CCN(Cc2ccc(Nc3ncc(F)c(-c4cc(F)c5nc(C)n(C(C)C)c5c4)n3)nc2)CC1 [ABEMACICLIB] | 0.04 µM (active) | > 30 µM (inactive) | > 30 µM (inactive) | > 30 µM (inactive) | > 30 µM (inactive) | > 30 µM (inactive) | > 30 µM (inactive) | – | – | – | – | – | – |
| CN(C)C/C=C/C(=O)Nc1cc2c(Nc3ccc(F)c(Cl)c3)ncnc2cc1O[C@H]1CCOC1 [AFATINIB] | > 30 µM (inactive) | – | > 30 µM (inactive) | > 30 µM (inactive) | > 30 µM (inactive) | – | – | > 30 µM (inactive) | > 30 µM (inactive) | > 30 µM (inactive) | – | – | – |
| COc1ccc2c(OCc3nnc4ccc(-c5ccccc5)nn34)ccnc2c1 [AMG-208] | > 30 µM (inactive) | > 30 µM (inactive) | > 30 µM (inactive) | > 30 µM (inactive) | > 30 µM (inactive) | > 30 µM (inactive) | > 30 µM (inactive) | > 30 µM (inactive) | > 30 µM (inactive) | > 30 µM (inactive) | > 30 µM (inactive) | > 30 µM (inactive) | – |
| NC[C@@](O)(c1ccc(Cl)cc1)c1ccc(-c2cn[nH]c2)cc1 [AT-13148] | > 30 µM (inactive) | > 30 µM (inactive) | – | > 30 µM (inactive) | > 30 µM (inactive) | > 30 µM (inactive) | > 30 µM (inactive) | > 30 µM (inactive) | > 30 µM (inactive) | > 30 µM (inactive) | > 30 µM (inactive) | – | – |
| CCN(CCCOc1ccc2c(Nc3cc(CC(=O)Nc4cccc(F)c4)n[nH]3)ncnc2c1)CCOP(=O)(O)O [BARASERTIB] | > 30 µM (inactive) | – | – | > 30 µM (inactive) | > 30 µM (inactive) | – | – | – | > 30 µM (inactive) | > 30 µM (inactive) | – | > 30 µM (inactive) | – |
| COc1cccc(Nc2ncnn3ccc(CN4CC[C@@H](N)[C@H](O)C4)c23)c1 [BMS-690514] | > 30 µM (inactive) | 0.034 µM (active) | – | > 30 µM (inactive) | – | > 30 µM (inactive) | > 30 µM (inactive) | – | – | – | – | > 30 µM (inactive) | – |
| C[C@@]1(C(=O)Nc2ccc(F)nc2)CCCN1c1nc(Nc2cc(C3CC3)n[nH]2)c2cccn2n1 [BMS-754807] | > 30 µM (inactive) | – | – | > 30 µM (inactive) | > 30 µM (inactive) | – | – | – | > 30 µM (inactive) | – | – | > 30 µM (inactive) | – |
| CCOc1ccn(-c2ccc(F)cc2)c(=O)c1C(=O)Nc1ccc(Oc2ccnc(N)c2Cl)c(F)c1 [BMS-777607] | > 30 µM (inactive) | – | – | > 30 µM (inactive) | – | > 30 µM (inactive) | > 30 µM (inactive) | > 30 µM (inactive) | > 30 µM (inactive) | – | – | – | > 30 µM (inactive) |
| COc1cc2c(Oc3ccc4[nH]c(C)cc4c3F)ncnc2cc1OCCCN1CCCC1 [CEDIRANIB] | > 30 µM (inactive) | – | > 30 µM (inactive) | > 30 µM (inactive) | > 30 µM (inactive) | – | – | > 30 µM (inactive) | > 30 µM (inactive) | – | – | > 30 µM (inactive) | – |
| Cn1c(=O)n(-c2ccc(C(C)(C)C#N)cc2)c2c3cc(-c4cnc5ccccc5c4)ccc3ncc21 [DACTOLISIB] | > 30 µM (inactive) | – | > 30 µM (inactive) | > 30 µM (inactive) | > 30 µM (inactive) | – | – | > 30 µM (inactive) | > 30 µM (inactive) | > 30 µM (inactive) | – | – | – |
| CC[C@@](C)(Nc1ccnc(-c2c[nH]c3ncccc23)n1)C(=O)NCC(F)(F)F [DECERNOTINIB] | > 30 µM (inactive) | > 30 µM (inactive) | – | 2.83 µM (active) | 0.064 µM | – | > 30 µM (inactive) | > 30 µM (inactive) | – | > 30 µM (inactive) | – | – | – |
| CCc1nc(C(N)=O)c(Nc2ccc(N3CCC(N4CCN(C)CC4)CC3)c(OC)c2)nc1NC1CCOCC1 [GILTERITINIB] | 0.152 µM (active) | 0.05 µM (active) | – | 2.72 µM (active) | > 30 µM (inactive) | – | – | – | > 30 µM (inactive) | > 30 µM (inactive) | – | – | – |
| COc1cc2ncnc3c2cc1OCCCCCN(C)Cc1ccc(Br)cc1N3 [JNJ-26483327] | > 30 µM (inactive) | 2.42 µM (active) | > 30 µM (inactive) | > 30 µM (inactive) | > 30 µM (inactive) | > 30 µM (inactive) | > 30 µM (inactive) | – | > 30 µM (inactive) | – | > 30 µM (inactive) | > 30 µM (inactive) | – |
| C[C@]1(O)C[C@@H](c2nc(-c3ccc4ccc(-c5ccccc5)nc4c3)c3c(N)nccn32)C1 [LINSITINIB] | > 30 µM (inactive) | – | – | > 30 µM (inactive) | – | > 30 µM (inactive) | – | > 30 µM (inactive) | > 30 µM (inactive) | > 30 µM (inactive) | – | > 30 µM (inactive) | – |
| CC1(C)CNc2cc(NC(=O)c3cccnc3NCc3ccncc3)ccc21 [MOTESANIB] | > 30 µM (inactive) | – | > 30 µM (inactive) | > 30 µM (inactive) | – | – | – | > 30 µM (inactive) | > 30 µM (inactive) | > 30 µM (inactive) | – | > 30 µM (inactive) | – |
| CN(c1ncccc1CNc1nc(Nc2ccc3c(c2)CC(=O)N3)ncc1C(F)(F)F)S(C)(=O)=O [PF-00562271] | > 30 µM (inactive) | – | > 30 µM (inactive) | > 30 µM (inactive) | – | – | – | > 30 µM (inactive) | > 30 µM (inactive) | > 30 µM (inactive) | – | – | – |
| O=C(NC[C@H](O)CO)c1ccncc1Nc1ccc(I)cc1F [PIMASERTIB] | > 30 µM (inactive) | > 30 µM (inactive) | – | > 30 µM (inactive) | > 30 µM (inactive) | > 30 µM (inactive) | – | > 30 µM (inactive) | > 30 µM (inactive) | > 30 µM (inactive) | > 30 µM (inactive) | > 30 µM (inactive) | – |
| Cn1cnc2c(F)c(Nc3ccc(Br)cc3Cl)c(C(=O)NOCCO)cc21 [SELUMETINIB] | > 30 µM (inactive) | – | – | > 30 µM (inactive) | > 30 µM (inactive) | – | – | > 30 µM (inactive) | > 30 µM (inactive) | > 30 µM (inactive) | – | > 30 µM (inactive) | – |
| CC(C)(O)CC(=O)NCCn1ccc2ncnc(Nc3ccc(Oc4cccc(C(F)(F)F)c4)c(Cl)c3)c21 [TAK-285] | > 30 µM (inactive) | > 30 µM (inactive) | – | > 30 µM (inactive) | – | > 30 µM (inactive) | > 30 µM (inactive) | – | > 30 µM (inactive) | > 30 µM (inactive) | – | – | > 30 µM (inactive) |
| COc1cc2c(N3CCN(C(=O)Nc4ccc(OC(C)C)cc4)CC3)ncnc2cc1OCCCN1CCCCC1 [TANDUTINIB] | > 30 µM (inactive) | – | – | > 30 µM (inactive) | – | – | – | > 30 µM (inactive) | – | – | – | > 30 µM (inactive) | – |
| CNC(=O)c1cccc(-c2ccc3c(N4CCOC[C@@H]4C)nc(N4CCOC[C@@H]4C)nc3n2)c1 [VISTUSERTIB] | > 30 µM (inactive) | > 30 µM (inactive) | > 30 µM (inactive) | > 30 µM (inactive) | – | > 30 µM (inactive) | > 30 µM (inactive) | > 30 µM (inactive) | > 30 µM (inactive) | > 30 µM (inactive) | > 30 µM (inactive) | > 30 µM (inactive) | – |
